Test results as given in patent US20220125765A1, “PHARMACEUTICAL COMBINATIONS COMPRISING MEBENDAZOLE AND A STRONG OR MODERATE CYP1A2 INHIBITOR” (ZEPHAPHARM LTD, priority 2019, published 2022).
Where two headings read alike, the source gives them in different places. Each block holds one molecule with its values, some of them ahead of it.

Key:
[1] = system: human cryopreserved hepatocytes; assay: Stability in human cryopreserved hepatocytes without and with cimetidine or thiabendazole (Example 6); conditions: human hepatocytes, largest effect over concentrations tested
Experimental: (§1) Mebendazole (1 μM) was incubated with cryopreserved human hepatocytes for 60 min in the absence and presence of cimetidine at 30, 100 and 300 μM) and thiabendazole at 10, 30 and 100 μM and samples taken at the required time points. The amount of test compound remaining at each time point was analysed by LC-MS/MS. Appropriate control compounds were also incubated along with ethoxycoumarin, which was incubated in the absence and presence of cimetidine and thiabendazole.
(§2) The final incubation volume was 500 μL. Two control compounds were included, alongside appropriate vehicle control. A positive control compound, ethoxycoumarin, for CYP1A2 was included. The positive control compound was incubated without inhibitor and in the presence of each inhibitor. The reactions were stopped by transferring 50 μL of incubate to 100 μL acetonitrile containing internal standard at the appropriate time points (0, 5, 10, 20, 40 and 60 min). The termination plates were centrifuged at 2500 rpm at 4° C. for 30 min to precipitate the protein.

[2] = Stability in human liver microsomes without and with cimetidine or furafylline (Example 4); assay type: in vitro ADME; conditions: human liver microsomes, largest effect over concentrations tested
Experimental: A minus cofactor control incubation was included for each compound tested where 0.1 M phosphate buffer pH 7.4 was added instead of NADPH (minus NADPH). […] The samples were analysed for mebendazole or phenacetin using LC-MS/MS.
A minus cofactor control incubation was included for each compound tested where 0.1 M phosphate buffer pH 7.4 was added instead of cofactor (minus NADPH). […] The samples were analysed for mebendazole or phenacetin using LC-MS/MS.

[3] = system: human cryopreserved hepatocytes; conditions: for reduction of metabolism of mebendazole: initial experiments
Experimental: (§3) The amount of test compound remaining at each time point was analysed by LC-MS/MS. Appropriate control compounds were also incubated.
(§4) The final incubation volume was 500 μL. Appropriate control compounds were included, alongside appropriate vehicle control.
(§5) The reactions were stopped by transferring 50 μL of incubate to 100 μL acetonitrile containing internal standard at the appropriate time points (0, 5, 10, 20, 40 and 60 min). The termination plates were centrifuged at 2500 rpm at 4° C. for 30 min to precipitate the protein.

[4] = system: human cryopreserved hepatocytes; assay: Stability in human cryopreserved hepatocytes without and with cimetidine or furafylline (Example 5); assay type: in vitro ADME; conditions: human hepatocytes, largest effect over concentrations tested
Experimental: The final incubation volume was 500 μL. Two control compounds were included with each species, alongside appropriate vehicle control.
The samples were analysed for mebendazole or ethoxycoumarin using LC-MS/MS.
The final incubation volume was 500 μL.
A positive control compound, ethoxycoumarin, for CYP1A2 was included. […] The samples were analysed for mebendazole or ethoxycoumarin using LC-MS/MS.

human BCRP transporter = human BCRP transporter (Homo sapiens, UniProt Q9UNQ0); conditions: Caco-2
Excerpt: Bidirectional apparent permeability of test compound was quantified by LC-MS/MS and used to determine an efflux ratio.

in vitro = conditions: human, cryopreserved hepatocytes, probe mebendazole 1 µM (intrinsic clearance)
Experimental: as §3, §4, §5

[5] = system: human cryopreserved hepatocytes
Experimental: as §3, §4, §5

CYP1A2 = CYP1A2 (Homo sapiens, UniProt P05177); conditions: cited from earlier work
[6] = system: human cryopreserved hepatocytes; remark: listed apart in the source
Experimental: as §1, §2

CYP1A2, sequence (P05177 whole entry): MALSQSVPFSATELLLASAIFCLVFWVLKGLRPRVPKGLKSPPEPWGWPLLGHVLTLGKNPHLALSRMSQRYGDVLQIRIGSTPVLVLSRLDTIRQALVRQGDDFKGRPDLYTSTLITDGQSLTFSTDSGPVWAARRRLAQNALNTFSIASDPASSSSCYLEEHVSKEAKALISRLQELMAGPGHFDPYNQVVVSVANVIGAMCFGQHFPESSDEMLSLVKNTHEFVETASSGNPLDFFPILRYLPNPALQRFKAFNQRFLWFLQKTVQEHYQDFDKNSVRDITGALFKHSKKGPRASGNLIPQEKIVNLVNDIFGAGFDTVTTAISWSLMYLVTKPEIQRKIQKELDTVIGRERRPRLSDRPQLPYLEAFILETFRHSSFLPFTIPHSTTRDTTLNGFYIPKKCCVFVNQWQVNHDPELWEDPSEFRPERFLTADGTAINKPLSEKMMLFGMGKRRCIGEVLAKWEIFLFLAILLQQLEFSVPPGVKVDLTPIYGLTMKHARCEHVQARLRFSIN
human BCRP transporter, sequence (Q9UNQ0 whole entry): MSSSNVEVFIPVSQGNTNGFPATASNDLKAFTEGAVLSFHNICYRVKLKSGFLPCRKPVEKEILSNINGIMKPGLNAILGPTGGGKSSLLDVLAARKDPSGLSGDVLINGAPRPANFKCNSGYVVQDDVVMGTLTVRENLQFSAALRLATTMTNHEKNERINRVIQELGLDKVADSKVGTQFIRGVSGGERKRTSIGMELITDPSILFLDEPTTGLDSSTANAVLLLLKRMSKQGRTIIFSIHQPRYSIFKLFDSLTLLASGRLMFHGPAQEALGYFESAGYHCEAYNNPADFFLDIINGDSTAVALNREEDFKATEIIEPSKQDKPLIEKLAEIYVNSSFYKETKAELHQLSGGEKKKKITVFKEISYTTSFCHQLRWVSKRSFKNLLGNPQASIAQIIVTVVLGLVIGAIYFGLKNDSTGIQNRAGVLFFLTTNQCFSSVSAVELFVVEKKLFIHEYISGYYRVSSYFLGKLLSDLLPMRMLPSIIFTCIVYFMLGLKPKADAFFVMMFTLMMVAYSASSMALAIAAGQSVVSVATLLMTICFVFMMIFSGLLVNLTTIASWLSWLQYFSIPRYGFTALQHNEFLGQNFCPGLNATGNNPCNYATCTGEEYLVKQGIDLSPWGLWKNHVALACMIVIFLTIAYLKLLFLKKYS

inhibition at 30 µM (in vitro): 87% | reduction of metabolism of mebendazole ([5]; mexiletine 10 to 300 μM, maximum as seen at 30 μM): up to 7.8 fold | reduction of metabolism of mebendazole ([3]; at 10 μM mexiletine): 2.7 fold
SMILES: Cc1cccc(C)c1OCC(C)N (centres unmarked) [Mexiletine]

decrease of mebendazole metabolism in presence of the inhibitor [6]: 6.4 fold | inhibition of intrinsic clearance of mebendazole [6]: 84%
SMILES: c1ccc2[nH]c(-c3cscn3)nc2c1 [Thiabendazole]
IC50 (CYP1A2; read-out: IC50 value for CYP1A2 inhibition): 830 nM | Ki (CYP1A2; read-out: inhibition constant (Ki) value for CYP1A2 inhibition): 1540 nM

Continued, molecule first:

SMILES: CN/C(=N/CCSCc1nc[nH]c1C)NC#N [Cimetidine]
decrease of mebendazole metabolism in presence of the inhibitor [1]: 1.2 fold | inhibition of intrinsic clearance of mebendazole [1]: 19% | inhibition of intrinsic clearance of mebendazole [2]: 32% | effect on metabolism of mebendazole ([3]; in the presence of cimetidine (30-300 μM)): not decreased | decrease of mebendazole metabolism in presence of the inhibitor [4]: 1.3 fold | inhibition of intrinsic clearance of mebendazole [4]: 25%

SMILES: C[C@]12CC[C@@H]3c4ccc(OS(=O)(=O)O)cc4CC[C@H]3[C@@H]1CCC2=O [Estrone-3-sulfate]
efflux ratio (ER) of positive control substrate (human BCRP transporter): 128

SMILES: COCCCC/C(=N\OCCN)c1ccc(C(F)(F)F)cc1 [Fluvoxamine]
inhibition at 10 µM (in vitro): 95% | reduction of metabolism of mebendazole ([5]; fluvoxamine 10 to 300 μM, maximum as seen at 10 μM): up to 20.2 fold | reduction of metabolism of mebendazole ([3]; at 30 μM fluvoxamine): 2.3 fold
